Data reported in patent US6303617A, “Serotonin-like 9-substituted hypoxanthine and methods of use” (Neotherapeutics, Inc., priority 1999, dated 2001).

How the values were obtained:
[1] = tested on: monoamine oxidase A/B; experiment: Inhibition of monoamine oxidase A/B catalytic activity (mouse brain mitochondria, tyramine substrate); assay type: biochemical
Experimental: Experiments were carried out to determine whether the serotonin analogue N-(2-(5-hydroxyindol-3-yl)ethyl)-3-(6-oxohydropurin-9-yl)propanamide (AIT-202) inhibited monoamine oxidases A and B. These experiments were performed as follows:
Mice (3-5 mice) were sacrificed by cervical dislocation. The brains were isolated and placed immediately in 10 ml cold isolation medium (IM) (500 μM EDTA, 5 mM HEPES, 0.25 M sucrose, and 10 mg/L bovine serum albumin (BSA)). The brains were minced and rinsed twice with 10 mL IM. The brains were then homogenized (5-6 strokes) in 10 mL IM. A volume (20 mL) of IM was then added and the homogenized preparation was centrifuged 8-10 minutes at 600×g at 4° C. The supernatant was transferred to a new tube. […]
For the enzyme assays, 1.0 mL to 1.5 mL 50 mM sodium phosphate, pH 7.4 containing 5 μM scopoletin and 2 U/mL horseradish peroxidase) were aliquoted in the wells of a Falcon 24-well plate (reaction mixture or RM). […] The preincubation was carried out in the Cytofluor® 4000 (PerSeptive Biosystems) and the baseline fluorescence at λex =360 nm and λem =460 nm was recorded. After 6 min, the reading was interrupted and 150-166 μM tyramine (monoamine oxidase A and monoamine oxidase B substrate) or the corresponding amount of water were added according to the plate layout. The reading was continued for approximately 30 minutes at 3-minute intervals. […]

[2] = tested on: obese mice; experiment: Control of obesity in naturally obese mice, 14 days oral; assay type: in vivo, mouse; conditions: naturally obese mice (>45 g), daily oral gavage, three doses, FIG. 4
Experimental: The activity of N-(2-(5-hydroxyindol-3-yl)ethyl)-3-(6-oxohydropurin-9-yl)propanamide (AIT-202) in controlling obesity in mice was tested. Mice from the existing animal colony of NeoTherapeutics (Irvine, Calif.) which were naturally obese (greater than 45 grams in weight) were treated with N-(2-(5-hydroxyindol-3-yl)ethyl)-3-(6-oxohydropurin-9-yl)propanamide daily orally by gavage for 14 days. The mice were dosed with one of three doses of N-(2-(5-hydroxyindol-3-yl)ethyl)-3-(6-oxohydropurin-9-yl)propanamide or vehicle (0.5% methylcellulose). Their weight and food consumption were monitored daily.

[3] = tested on: total serum cholesterol; experiment: Lowering of total serum cholesterol in mice; assay type: in vivo, mouse; conditions: 300 mg/kg oral, 24 hours before determination; 5 mice; vs control group; decrease of 15% or more considered significant
Experimental: The activity of N-(2-(5-hydroxyindol-3-yl)ethyl)-3-(6-oxohydropurin-9-yl)propanamide (AIT-202) in lowering total serum cholesterol was tested in mice. Mice (5 mice) were administered N-(2-(5-hydroxyindol-3-yl)ethyl)-3-(6-oxohydropurin-9-yl)propanamide orally at a dosage of 300 mg/kg body weight for 24 hours before cholesterol determination. Total serum cholesterol was determined by standard methods. […] A decrease of 15% or more is considered significant in this test.

[4] = tested on: total serum cholesterol; experiment: Total serum cholesterol in Swiss Webster mice fed a high cholesterol or normal diet; assay type: in vivo; conditions: dosed on days 6 and 7 of diet, serum on day 8; FIG. 5
Experimental: (§1) On days 6 and 7 the mice were given the compound N-(2-(5-hydroxyindol-3-yl)ethyl)-3-(6-oxohydropurin-9-yl)propanamide (AIT-202), a positive control (bezafibrate), or a vehicle. The animals were fasted overnight and on day 8 trunk blood was collected. Total cholesterol and HDL cholesterol were measured in serum.

[5] = tested on: HDL cholesterol; experiment: HDL cholesterol in serum of Swiss Webster mice fed a high cholesterol or normal diet; assay type: in vivo; conditions: dosed on days 6 and 7 of diet, serum on day 8; FIG. 5
Experimental: as §1

For `O=C(CCn1cnc2c(=O)[nH]cnc21)NCCc1c[nH]c2ccc(O)cc12` [AIT-202, N-(2-(5-hydroxyindol-3-yl)ethyl)-3-(6-oxohydropurin-9-yl)propanamide], the “effect on the catalytic activity of monoamine oxidase A and B” value ([1]; 2-150 μM compound, tyramine substrate, FIGS. 2 and 3) was “significant effect”, the IC50 ([1]; estimated, mouse brain mitochondrial protein 0.22-0.24 mg/mL, 150-166 μM tyramine, pH 7.4, 37° C.) was about 2000 nM and the “benefit to treatment in obese mice” value [2] was “There appears to be benefit to treatment”. For the same compound, the “decrease of total serum cholesterol” value [3] was 18%, the “effect on total serum cholesterol” value [4] was “lowers total serum cholesterol” and the “effect on HDL cholesterol” value [5] was “raises HDL cholesterol”.
